Reference: paper PMC9332833 (Cancers, 2022)

Experiment: Solubility in selected solvents
Format: physicochemical
Excerpt: Supplementary Information
Table S1. Solubility of BK124.1 in selected solvents. In bold are marked solvents in which BK124.1 is soluble and stable, adequate for the administration in vivo.
Solvent Formulation Comments
Water 0.9% NaCl insoluble
10% ethanol in 0.9% NaCl insoluble
Cyclodextrin ɑ-cyclodextrin in water insoluble
β-cyclodextrin in water insoluble
γ-cyclodextrin in water insoluble […]
DMSO < 100% in water insoluble
Surfactant 20% Solutol HS 15 in 0.9% NaCl insoluble
20% Solutol HS 15 in PBS insoluble
20% Solutol HS 15, 10% ethanol in water 0.9% NaCl soluble/stable
10% Solutol HS 15, 10% ethanol in water 0.9% NaCl soluble/stable

For CCC12C(=O)C(CC)(C(c3ccccc3)=C1c1ccccc1)C1C(=O)N(CC(O)CNC(C)C)C(=O)C12 (centres unmarked) [BK124.1, 4-[2-hydroxy-3-(propan-2-ylamino)propyl]-1,7-diethyl-8,9-diphenyl-4-azatricyclo [5.2.1.02,6]dec-8-ene-3,5,10-trione], the Solubility (0.9% NaCl) was “insoluble”, the Solubility (10% Solutol HS 15, 10% ethanol in water 0.9% NaCl) was “soluble/stable” and the Solubility (10% ethanol in 0.9% NaCl) was “insoluble”. For the same compound, the Solubility (20% Solutol HS 15, 10% ethanol in water 0.9% NaCl) was “soluble/stable”, the Solubility (20% Solutol HS 15 in 0.9% NaCl) was “insoluble” and the Solubility (20% Solutol HS 15 in PBS) was “insoluble”. The Solubility (DMSO 100%) was “soluble/stable”, the Solubility (DMSO < 100% in water) was “insoluble” and the Solubility (ɑ-cyclodextrin in water) was “insoluble”. For the same compound, the Solubility (β-cyclodextrin in water) was “insoluble” and the Solubility (γ-cyclodextrin in water) was “insoluble”.
